Test results as given in US20260357306A1, “ONE-POT FERMENTATIVE PRODUCTION OF GLYCOLATE OR OTHER HYDROXYCARBOXYLIC ACIDS” (PHYCUS BIOTECHNOLOGIES INC., priority 2023, published 2026).
Each block holds one molecule with its values, some of them ahead of it.

Legend:
[1] = molecular target: T1, Escherichia coli aldehyde dehydrogenase ecoALDH (aldA), SEQ ID NO: 265 (Escherichia coli, UniProt P25553); experiment: Aldehyde dehydrogenase (glycolaldehyde to glycolic acid) kinetics, ecoALDH; format: biochemical
T1 construct: made in house; host or cells: E. coli BL21 (DE3)
T1 sequence (P25553 1-479): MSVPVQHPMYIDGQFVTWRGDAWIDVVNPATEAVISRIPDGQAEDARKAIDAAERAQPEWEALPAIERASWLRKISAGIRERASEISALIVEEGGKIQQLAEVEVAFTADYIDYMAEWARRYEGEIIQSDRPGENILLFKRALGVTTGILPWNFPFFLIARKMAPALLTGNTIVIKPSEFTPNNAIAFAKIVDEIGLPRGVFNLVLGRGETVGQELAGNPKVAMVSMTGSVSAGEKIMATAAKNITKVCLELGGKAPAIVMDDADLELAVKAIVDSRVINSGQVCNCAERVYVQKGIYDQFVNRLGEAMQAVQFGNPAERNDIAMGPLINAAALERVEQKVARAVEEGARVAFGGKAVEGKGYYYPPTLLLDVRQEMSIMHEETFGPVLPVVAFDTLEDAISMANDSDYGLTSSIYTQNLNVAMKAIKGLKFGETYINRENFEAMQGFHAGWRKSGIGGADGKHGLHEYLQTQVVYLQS
Description: (§1) Enzyme expression and purification: The enzymes of interest were genetically engineered in the E. coli BL21 (DE3) strain on a high copy plasmid under control of the T7 promoter. The enzymes were tagged with a hexahistidine (His-tag) sequence to facilitate for purification. Post-expression, the His-tagged enzymes were selectively bound to a nickel-charged immobilized metal affinity chromatography (IMAC) resin, exploiting the high affinity between histidine residues and nickel ions. Upon washing away non-specifically bound proteins, the His-tagged enzymes were eluted with an imidazole-containing buffer and subsequently used for enzymatic assays.
(§2) Enzyme assays: Standard enzyme characterization protocols were performed to determine the activities of the enzymes. Dehydrogenase activity against the substrates was determined using a continuous assay following the increase in absorbance at 340 nm ε340 (NADH)=6.22 mM^−1. cm^−1, and ε340 (NADPH)=6.2 mM^−1·cm^−1]. […]
A second enzymatic step in the processes described herein relate to the conversion of an aliphatic polyhydric aldehyde substrate (e.g., glycolaldehyde) to a corresponding alpha-hydroxy acid (e.g., glycolic acid). […] The reaction was initiated by the addition of the purified enzyme, and activity was measured by monitoring the formation of glycolic acid over time. […]

[2] = molecular target: T2, Azotobacter vinelandii aldehyde dehydrogenase aviALDH, SEQ ID NO: 266 (Azotobacter vinelandii, UniProt C1DMY3); experiment: Aldehyde dehydrogenase (glycolaldehyde to glycolic acid) kinetics, aviALDH; format: biochemical
T2 sequence (C1DMY3 1-477): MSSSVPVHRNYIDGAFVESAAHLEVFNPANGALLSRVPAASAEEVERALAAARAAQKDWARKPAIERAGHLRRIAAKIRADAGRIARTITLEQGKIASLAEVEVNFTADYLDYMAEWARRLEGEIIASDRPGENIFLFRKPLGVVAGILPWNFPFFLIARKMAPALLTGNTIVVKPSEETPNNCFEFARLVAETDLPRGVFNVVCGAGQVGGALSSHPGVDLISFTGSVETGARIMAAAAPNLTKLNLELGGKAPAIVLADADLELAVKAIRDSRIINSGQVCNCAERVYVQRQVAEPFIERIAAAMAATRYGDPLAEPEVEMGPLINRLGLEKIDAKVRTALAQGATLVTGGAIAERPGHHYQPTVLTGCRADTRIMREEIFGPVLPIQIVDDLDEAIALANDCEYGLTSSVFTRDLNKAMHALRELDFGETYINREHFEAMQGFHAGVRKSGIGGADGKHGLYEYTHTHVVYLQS
Description: as §1
(§3) Enzyme assays: Standard enzyme characterization protocols were performed to determine the activities of the enzymes. Dehydrogenase activity against the substrates was determined using a continuous assay following the increase in absorbance at 340 nm ε340 (NADH)=6.22 mM^−1. cm^−1, and ε340 (NADPH)=6.2 mM^−1·cm^−1]. Substrate screens were performed at 30 °C in a reaction mixture (200 μL) containing 50 mM of substrate in 100 mM Tris-HCl (pH 8.5), 1 mM NAD^+, 1 mM substrate, and 10 μg of purified protein. Initial velocity patterns of the enzymatic reaction were obtained by varying the concentrations of ethylene glycol at fixed concentrations of enzyme concentration in the presence of the saturating NAD concentrations.
(§4) A second enzymatic step in the processes described herein relate to the conversion of an aliphatic polyhydric aldehyde substrate (e.g., glycolaldehyde) to a corresponding alpha-hydroxy acid (e.g., glycolic acid). E. coli aldehyde dehydrogenase aldA (ecoALDH) has been reported to catalyze the intracellular enzymatic conversion of glycolaldehyde (GA) to glycolic acid (e.g., Wada et al. 2005; Morishige et al., 2007; Pandit et al., 2019; Pandit et al., 2021). In order to identify potentially higher-performing enzymes for industrial use capable of converting glycolaldehyde to glycolic acid, we evaluated a plurality of candidates based on either close, medium, or distant phylogeny to ecoALDH (SEQ ID NO: 265). A subset of candidate enzymes were cloned, expressed, and purified, along with ecoALDH as a control, as described in Example 8.1, and their in vitro enzymatic activities were measured in a reaction mixture consisting of 50 mM glycolaldehyde in 100 mM Tris-HCl buffer (pH 8.5). The reaction was initiated by the addition of the purified enzyme, and activity was measured by monitoring the formation of glycolic acid over time. […]

[3] = molecular target: T3, Pseudomonas putida aldehyde dehydrogenase ppuALDH, SEQ ID NO: 267 (Pseudomonas putida, UniProt Q88K06); experiment: Aldehyde dehydrogenase (glycolaldehyde to glycolic acid) kinetics, ppuALDH; format: biochemical
T3 sequence (Q88K06 1-503): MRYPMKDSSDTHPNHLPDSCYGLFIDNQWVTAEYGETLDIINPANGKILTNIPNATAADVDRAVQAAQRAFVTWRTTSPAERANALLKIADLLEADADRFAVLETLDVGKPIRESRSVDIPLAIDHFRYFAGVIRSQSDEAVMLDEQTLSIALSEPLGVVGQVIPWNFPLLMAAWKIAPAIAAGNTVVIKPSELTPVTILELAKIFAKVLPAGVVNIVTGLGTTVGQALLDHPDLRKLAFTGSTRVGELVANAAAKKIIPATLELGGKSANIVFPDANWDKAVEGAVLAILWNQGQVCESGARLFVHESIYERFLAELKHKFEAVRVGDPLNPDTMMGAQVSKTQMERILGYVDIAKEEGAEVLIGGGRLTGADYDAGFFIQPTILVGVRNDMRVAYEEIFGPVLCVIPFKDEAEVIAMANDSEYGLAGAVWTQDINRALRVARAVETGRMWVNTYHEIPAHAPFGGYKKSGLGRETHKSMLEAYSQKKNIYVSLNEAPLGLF
Description: as §1
as §3, with “Initial velocity patterns of the enzymatic reaction were obtained by varying the concentrations of ethylene glycol at fixed concentrations of enzyme concentration in the presence of the saturating NAD concentrations.” left out
as §4, with “E. coli aldehyde dehydrogenase aldA (ecoALDH) has been reported to catalyze the intracellular enzymatic conversion of glycolaldehyde (GA) to glycolic acid (e.g., Wada et al. 2005; Morishige et al., 2007; Pandit et al., 2019; Pandit et al., 2021).” left out

[4] = tested on: Gluconobacter oxydans zinc-dependent medium-chain alcohol dehydrogenase Gox0313, SEQ ID NO: 206; details: role: substrate, Zhang et al., 2015, cited from earlier work
[5] = substrate: OCCO; experiment: Alcohol dehydrogenase (EG oxidation) Michaelis-Menten kinetics, gdiADH; format: biochemical, Gluconobacter diazotrophicus; details: other: role: substrate, 100 mM Tris-HCl pH 8.5, 30 °C, saturating NAD, EG 1-100 mM
Description: as §1, §2
(§5) The candidate alcohol dehydrogenase enzymes were next characterized for their enzymatic activity. […] Reactions were initiated by the addition of the purified enzyme and enzymatic activity was measured by monitoring the formation of the product (glycolaldehyde) over time as described in Example 8.1. […]

[6] = substrate: OCCO; experiment: Alcohol dehydrogenase (EG oxidation) Michaelis-Menten kinetics, goxADH; format: biochemical, Gluconobacter oxydans; details: other: role: substrate, 100 mM Tris-HCl pH 8.5, 30 °C, saturating NAD, EG 1-100 mM
Description: as §1, §2, §5

[7] = substrate: OCCO; experiment: Alcohol dehydrogenase (EG oxidation) Michaelis-Menten kinetics, gmoADH; format: biochemical, Gluconobacter morbifer; details: other: role: substrate, 100 mM Tris-HCl pH 8.5, 30 °C, saturating NAD, EG 1-100 mM
Description: as §1, §2, §5

[8] = role: inhibitor, substrate inhibition, relative to ecoALDH
[9] = role: substrate, relative to ecoALDH
[10] = role: substrate, versus ecoALDH

Relative KI ([1]; role: inhibitor, substrate inhibition): 1.0
Relative kcat ([1]; role: substrate): 1.0
resistance to substrate inhibition, fold higher than ecoALDH ([2]; role: inhibitor, glycolaldehyde substrate inhibition, versus ecoALDH): 5.6 fold
Relative KI [2, 8]: 5.6
Relative kcat [2, 9]: 5.3
catalytic turnover rate, fold higher than ecoALDH [2, 10]: 5.3 fold
Relative KI [3, 8]: 1.3
Relative kcat [3, 9]: 5.8
catalytic turnover rate, fold higher than ecoALDH [3, 10]: 5.8 fold
Molecule: O=CCO [glycolaldehyde]
turnover and catalytic efficiency for glycolaldehyde as a substrate ([4]; compared to ethylene glycol): higher turnover and catalytic efficiency
affinity and catalytic rate for glycolaldehyde reduction to ethylene glycol ([4]; compared to the oxidation of ethylene glycol): higher affinity and catalytic rate

B1: Gluconobacter diazotrophicus alcohol dehydrogenase gdiADH, SEQ ID NO: 208 (Gluconacetobacter diazotrophicus PA1 5) (protein)
chain: MRSADTILGGTSMTGKMKAAVVREFGKPLTIEELDIPSIRPDQILVKMDACGVCHTDLHAARGDWPVKPNPPFIPGHEGVGHVVSVGSAVKWVKLGDVVGVPWLYSACGHCEHCLGGWETLCASQDDTGYTVNGCFAEYVVADPSYVAHLPKTIDPLQVAPVLCAGLTVYKGLKMTDTKPGDWVAVSGVGGLGQMAVQYGVAMGMNVIAVDIDDEKLATAKALGAALTVNARATDPAPFIQSQVGGAHGALVTAVSRSAFSQAMGFARRGGTIVLNGLPPGEFPISIFDMVMAGTTVRGSIVGTRLDMIEAVSFFADGKVKTVIEPDRLENINQIFTDLEEGKIQGRKVLDFRQ
Km [5]: 230 ± 87 μM EG
Vmax [5]: 7.5 ± 2.1 µmol/min/mg

B2: Gluconobacter oxydans alcohol dehydrogenase goxADH (Gox0313), SEQ ID NO: 206 (Gluconobacter oxydans 621H) (protein)
chain: MADTMLAAVVREFGKPLSIERLPIPDIKPHQILVKVDTCGVCHTDLHAARGDWPSKPNPPFIPGHEGVGHIVAVGSQVGDFVKTGDVVGVPWLYSACGHCEHCLGGWETLCEKQDDTGYTVNGCFAEYVVADPNYVAHLPSTIDPLQASPVLCAGLTVYKGLKMTEARPGQWVAVSGVGGLGQMAVQYAVAMGMNVVAVDIDDEKLATAKKLGASLTVNAKDTDPARFIQQQIGGAHGALVTAVGRTAFSQAMGYARRGGTIVLNGLPPGDFPVSIFDMVMNGTTIRGSIVGTRLDMIEAMDFFARGKVKSVVTPGKLENINTIFDDLQNGRLEGRTVLDFRS
Vmax [6]: 2.0 ± 0.1 µmol/min/mg

B3: Gluconobacter morbifer alcohol dehydrogenase gmoADH, SEQ ID NO: 207 (Gluconobacter morbifer G707) (protein)
chain: MADTMQAAVVREFGKPLSIERVPVPEIRPNQILVKVETCGVCHTDLHAARGDWPTKPNPPFIPGHEGVGRIVALGSQVGDFVKVGDRVGVPWLYSACGHCEHCLGGWETLCEKQEDTGYSVNGCFAEYVAADPNYVAHLPENIDPLETSPVLCAGLTVYKGLKMTEARPGQWVAVSGIGGLGQMAVQYAVAMGMNVVAVDIDDGKLETAKKLGAVLTVNAKDRDPAKFVQQEIGGAHGALVTAVGRTAFAQAMGYARRGGTIVLNGLPPGDFPISIFDMVMNGTTVRGSIVGTRLDMIEALDFFARGKVKSVVTADKLENINTIFDNLQNGRLAGRTVLDFRS
Km [7]: 200 ± 44 μM EG
Vmax [7]: 4.9 ± 0.8 µmol/min/mg
